Patent US20100267680A1, “USE OF AT LEAST ONE OXIME DERIVATIVE OF CHOLEST-4-EN-3-ONE AS ANTIOXIDANTS” (priority 2007, published 2010)

Key:
[1] = Competition with DMPO for tBuO radical, EPR quantification of DMPO-tBuO adduct; conditions: for % inhibition of the DMPO-tBuO radical: compound 20 mM equimolar to DMPO
Experimental: The nitrones trap the radical species (R.; […]) and allow their observation by electron paramagnetic resonance (EPR) (Degray J. et al. Electron Spin Resonance, Ed N.M. Atherton, Atheaeum Press Ltd; Cambridge, 1994, 14, 246).
The incubation of the DMPO (Interchim-U2469) (20 mM) in deoxygenated toluene (Sigma-Aldrich) in the presence of the tBuO (tert-butoxyl) radical, generated by photolysis, makes it possible to identify and quantify by EPR the signal of the DMPO-tBuO radical. This signal is inhibited in the presence of an equimolar quantity of cholest-4-en-3-one oxime.
The EPR signal allows integration in the form of an area of the signal of the DMPO-tBuO adduct and therefore a relative quantification of this radical entity.
All the experiments were carried out on an X-band Bruker ESP300 device (9.5 GHz) at ambient temperature. The solutions were studied in a quartz EPR tube.

Beagles = assay: General toxicity study, oral once daily for 39 weeks; assay type: in vivo; conditions: suspension in corn oil
Experimental: A general toxicity study was carried out on Beagles receiving cholest-4-èn-3-one oxime in suspension in corn oil by oral administration once daily for 39 weeks. The detailed toxicological analysis of this study made it possible to describe a dose with a no-observed-effect level (NOEL) at 50 mg/kg.

[2] = Pharmacokinetics in the dog, oral and intra-venous, plasma assay by HPLC-MS; assay type: in vivo; conditions: 500 mg/kg oral route, suspension in corn oil, vs intra-venous
Experimental: A study of pharmacokinetics with administration by oral route in suspension in corn oil and by intra-venous route in solution in cremophor/ethanol/water (5%, 10%, 85%) made it possible to calculate the bioavailability of the product. The assay of the product in the plasma is carried out by a high pressure liquid chromatography method coupled with mass spectrometry.

[3] = Oxidation of cumene to cumene hydroperoxide by oxygen with AIBN, HPLC-UV assay; conditions: for % of reduction of the oxidation of the cumene / Area of the signal, in relative units, of the cumene hydroperoxide: 2 equivalents of AIBN, 2 hours 45° C.
Experimental: The oxidation of cumene at atmospheric pressure and at 37° C. by oxygen is known and described in the presence of a radical initiator such as AIBN (azobisisobutyronitrile) (Blanchard H. S., J. Am. Chem. Soc. 1959, 81, 4548). A recent publication used this reaction to classify the antioxidant potential of known products such as vitamin E (which is the universal reference), BHT (butylated hydroxytoluene) and other products.
In the following experiment we reproduced the same experimental conditions as those described in the publication of Becker D. A. et al. (J. Am. Chem. Soc. 2002, 124, 4678-4684). A high pressure liquid chromatography method coupled with a UV detector was used to detect cumene hydroperoxide. The column used is an Agilent Zorbax Eclipse XDB RPC8 column (150×4.6 mm) coupled with a UV detector fixed at 254 nm. The gradient used is detailed in the following table: […]
2 ml of cumene (AcrosOrganic) and 0.5 ml of methanol are mixed, azobisisobutyronitrile (AcrosOrganic) is added (2 equivalents) and the solution taken to 45° C. in order to accelerate the chemical reaction. The cumene hydroperoxide appears over time and is assayed by the HPLC method.
The technique used made it possible to compare the appearance of the cumene hydroperoxide in the presence of an antioxidant agent such as the claimed products and vitamin E used as reference product.

[4] = Chemical stability of powder under ICH storage conditions, HPLC-UV total impurities; assay type: physicochemical; conditions: for total impurities: powder
Experimental: These analyses were carried out using a high pressure liquid chromatography method coupled with a UV detector. This method makes it possible to quantify the impurities at a level of 0.05%.

CC(C)CCC[C@@H](C)[C@H]1CC[C@H]2[C@@H]3CCC4=CC(=NO)CC[C@]4(C)[C@H]3CC[C@]12C [cholest-4-en-3-one oxime]
Area of the DMPO-tBuO signal at 200 s in relative units ([1]; DMPO 20 mM + compound 20 mM, (t-BuO)2 20 mM, photolysis at 350 nm, 200 s): 3 relative units
Area of the DMPO-tBuO signal at 400 s in relative units ([1]; DMPO 20 mM + compound 20 mM, (t-BuO)2 20 mM, photolysis at 350 nm, 400 s): 5.5 relative units
DMPO-tBuO EPR signal in the presence of an equimolar quantity of compound ([1]; DMPO 20 mM in deoxygenated toluene, equimolar compound): inhibited
% inhibition of the DMPO-tBuO radical ([1]; 200 s): 50%
% inhibition of the DMPO-tBuO radical ([1]; 400 s): 40%
inhibition of the level of the DMPO-tBuO signal radical ([1]; conclusion of Example 1): ~50%
kinetics of inhibition of the DMPO-tBuO signal ([1]; rapid kinetics): less than 10 minutes
no-observed-effect level (NOEL) (Beagles): 50 mg/kg
bioavailability [2]: 6%
% of reduction of the oxidation of the cumene ([3]; 100 μM): 38%
Area of the signal, in relative units, of the cumene hydroperoxide ([3]; 100 μM): 250 relative units
% of reduction of the oxidation of the cumene ([3]; 200 μM): 57%
Area of the signal, in relative units, of the cumene hydroperoxide ([3]; 200 μM): 175 relative units
reduction of the oxidation of the cumene by oxygen ([3]; conclusion of Example 2): approximately 40%
activity compared with vitamin E ([3]; same concentrations, same conditions): activity similar to vitamin E
change in the quality of the product ([4]; after 2 year's storage at 25° C.): No change in the quality of the product
change in the quality of the product ([4]; after 6 months of storage at 40° C.): No change in the quality of the product
total impurities ([4]; 25° C. under 60% relative humidity, T0): 1.8%
total impurities ([4]; 25° C. under 60% relative humidity, T24 months): 1.8%
total impurities ([4]; 40° C. under 75% relative humidity, T0): 2.1%
total impurities ([4]; 40° C. under 75% relative humidity, T6 months): 1.9%

vitamin E [reference compound]
% of reduction of the oxidation of the cumene ([3]; 100 μM): 39%
Area of the signal, in relative units, of the cumene hydroperoxide ([3]; 100 μM): 245 relative units
